What was measured:
[1] = system: interferon-stimulated responsive elements (ISRE); experiment: Activation of ISRE promoter elements by conditioned media from PBMC (HEK-ISREluc); type: cell-based, human; conditions: Homo sapiens; conditioned media from PBMC transferred to HEK-ISREluc cells, 24 hours; lowest effective concentration; read-out: PBMC LEC
Method in brief: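 Human PBMCs (≥2 donors, RPMI + 10% human AB serum, 2×10^5 cells/well) incubated overnight with compound; supernatant transferred to HEK293 cells stably carrying pISRE-Luc for 24 h, then luciferase read. LEC = compound concentration on PBMCs giving luciferase signal at least two-fold above assay SD; recombinant IFN-α-2a standard.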

human TLR8 = molecular target: T1, human TLR8 (Homo sapiens, UniProt Q9NR97); experiment: TLR8 cellular reporter assay (HEK293, NFκB-luc); type: cell-based; conditions: HEK293 cells transfected with CMV-TLR8 and NFκB-luc, 6 hours incubation; lowest effective concentration
T1 construct: expressed in transfected cells; host or cells: HEK293 cells, transient transfection with TLR8 plasmid and NFκB-luc plasmid
T1 sequence (Q9NR97 27-1041): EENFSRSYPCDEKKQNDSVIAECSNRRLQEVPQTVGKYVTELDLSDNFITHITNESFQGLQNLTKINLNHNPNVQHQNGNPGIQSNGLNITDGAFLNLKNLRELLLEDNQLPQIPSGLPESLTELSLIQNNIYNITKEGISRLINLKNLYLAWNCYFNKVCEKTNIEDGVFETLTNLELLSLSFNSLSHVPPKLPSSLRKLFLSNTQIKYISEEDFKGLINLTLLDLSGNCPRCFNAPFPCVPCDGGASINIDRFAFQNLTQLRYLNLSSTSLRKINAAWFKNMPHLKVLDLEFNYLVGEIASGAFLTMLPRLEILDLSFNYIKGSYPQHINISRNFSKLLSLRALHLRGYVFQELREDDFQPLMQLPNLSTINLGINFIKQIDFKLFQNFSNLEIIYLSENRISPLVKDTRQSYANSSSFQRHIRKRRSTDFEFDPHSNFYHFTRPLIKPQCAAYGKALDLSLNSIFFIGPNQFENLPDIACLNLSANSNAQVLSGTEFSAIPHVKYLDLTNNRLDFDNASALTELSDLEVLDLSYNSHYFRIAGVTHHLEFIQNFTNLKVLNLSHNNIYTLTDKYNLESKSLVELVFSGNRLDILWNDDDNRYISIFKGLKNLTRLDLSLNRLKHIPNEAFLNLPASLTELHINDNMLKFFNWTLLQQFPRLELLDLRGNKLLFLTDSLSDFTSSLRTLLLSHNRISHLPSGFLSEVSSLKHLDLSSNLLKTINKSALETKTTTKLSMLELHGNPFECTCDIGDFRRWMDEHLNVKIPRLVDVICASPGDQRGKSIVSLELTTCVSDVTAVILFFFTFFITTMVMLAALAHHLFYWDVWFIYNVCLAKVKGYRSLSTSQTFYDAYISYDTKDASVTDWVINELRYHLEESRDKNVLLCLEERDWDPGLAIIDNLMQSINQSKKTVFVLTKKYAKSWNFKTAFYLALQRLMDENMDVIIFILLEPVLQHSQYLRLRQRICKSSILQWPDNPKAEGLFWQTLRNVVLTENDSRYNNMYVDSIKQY
Method in brief: (§1)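 HEK293 cells transiently transfected with receptor expression vector plus NFκB-luciferase reporter, exposed to compound (added in 4% DMSO) for 6 hours at 37° C, 5% CO2. Luciferase activity measured by luminescence; dose-response curves from quadruplicate measurements.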

human TLR7 = molecular target: T2, human TLR7 (Homo sapiens, UniProt Q9NYK1); experiment: TLR7 cellular reporter assay (HEK293, NFκB-luc); type: cell-based; conditions: HEK293 cells transfected with CMV-TLR7 and NFκB-luc, 6 hours incubation; lowest effective concentration
T2 construct: expressed in transfected cells; host or cells: HEK293 cells, transient transfection with CMV-TLR7 plasmid and NFκB-luc plasmid
T2 sequence (Q9NYK1 27-1049): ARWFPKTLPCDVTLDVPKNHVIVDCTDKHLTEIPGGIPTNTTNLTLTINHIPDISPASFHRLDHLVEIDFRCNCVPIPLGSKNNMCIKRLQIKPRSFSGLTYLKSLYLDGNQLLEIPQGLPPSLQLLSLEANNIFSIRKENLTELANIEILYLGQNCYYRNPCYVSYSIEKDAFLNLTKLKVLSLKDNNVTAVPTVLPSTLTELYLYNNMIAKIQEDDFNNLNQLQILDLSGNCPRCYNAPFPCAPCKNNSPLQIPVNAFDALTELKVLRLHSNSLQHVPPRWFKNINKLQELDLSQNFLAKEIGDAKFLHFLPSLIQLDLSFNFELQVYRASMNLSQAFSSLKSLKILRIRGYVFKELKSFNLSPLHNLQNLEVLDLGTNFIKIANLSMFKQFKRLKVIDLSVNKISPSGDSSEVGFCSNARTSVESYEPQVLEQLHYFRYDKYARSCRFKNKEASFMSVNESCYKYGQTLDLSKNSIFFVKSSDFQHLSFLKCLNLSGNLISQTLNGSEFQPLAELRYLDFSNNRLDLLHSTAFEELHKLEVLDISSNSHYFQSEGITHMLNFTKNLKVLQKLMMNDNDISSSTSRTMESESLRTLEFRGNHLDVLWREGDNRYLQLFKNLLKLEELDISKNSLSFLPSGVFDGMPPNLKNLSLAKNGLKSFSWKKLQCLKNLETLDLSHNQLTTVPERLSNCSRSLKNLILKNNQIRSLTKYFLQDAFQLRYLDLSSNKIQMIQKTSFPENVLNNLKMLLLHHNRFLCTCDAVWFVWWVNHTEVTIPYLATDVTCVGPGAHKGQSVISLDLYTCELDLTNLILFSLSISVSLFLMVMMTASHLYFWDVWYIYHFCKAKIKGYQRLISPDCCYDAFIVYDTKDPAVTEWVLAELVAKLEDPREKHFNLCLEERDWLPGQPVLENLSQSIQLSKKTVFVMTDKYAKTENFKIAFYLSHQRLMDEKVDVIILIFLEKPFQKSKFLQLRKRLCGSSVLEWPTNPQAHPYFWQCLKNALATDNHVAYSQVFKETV
Method in brief: as §1

SMILES	minimal effective concentration [1] [µM]	TLR8 LEC (human TLR8) [µM]	TLR7 LEC (human TLR7) [µM]
COc1cnccc1Cn1ccc2nc(N)nc(NCc3cc(C)on3)c21 [Compound 123]	0.002	>25	0.026
COCCn1ccc2nc(N)nc(NCc3cc(C)on3)c21 [Compound 128]	0.062	>25	0.342
CCOc1ccccc1Cn1ccc2nc(N)nc(NCCOC)c21 [Compound 129]	0.122	>25	0.670
CCCCNc1nc(N)nc2ccn(Cc3ccccc3OC(F)(F)F)c12 [Compound 130]	0.804	>25	1.940
COCCNc1nc(N)nc2ccn(Cc3cscn3)c12 [Compound 132]	0.879	>25	5.99
CCCCNc1nc(N)nc2ccn(Cc3ccccc3OCC)c12 [Compound 133]	0.023	>25	0.07
CCCCNc1nc(N)nc2ccn(Cc3cc(OC4CCOC4)c(OC)cn3)c12 (stereo not drawn) [Compound 134]	0.104	>25	1.20
COCCNc1nc(N)nc2ccn(Cc3cc(OC4CCOC4)c(OC)cn3)c12 (stereo not drawn) [Compound 135]	4.05	>25	12.5
CC(C)OCCNc1nc(N)nc2ccn(Cc3ccccn3)c12 [Compound 137]	2.03	>25	13.8
Nc1nc(NCC2CCCO2)c2c(ccn2Cc2ccccn2)n1 (stereo not drawn) [Compound 139]	0.588	>25	1.41
Cc1cc(CNc2nc(N)nc3ccn(Cc4cccc(C(F)(F)F)n4)c23)no1 [Compound 143]	0.016	>25	0.10
COCCNc1nc(N)nc2ccn(Cc3ncc(C)c(OC)c3C)c12 [Compound 147]	2.02	>25	4.49
CCCCNc1nc(N)nc2ccn(C[C@H]3CCCO3)c12 [Compound 148]	0.056	3.93	0.16
CCCCNc1nc(N)nc2ccn(Cc3cccc4c3OCC4)c12 [Compound 149]	0.006	>25	0.02
COCCNc1nc(N)nc2ccn(Cc3cccc4c3OCC4)c12 [Compound 150]	0.054	>25	0.25
Cc1cc(CNc2nc(N)nc3ccn(Cc4cccc(CN5CCCC5)c4)c23)no1 [Compound 153]	0.002	>25	0.05
Cc1cc(CNc2nc(N)nc3ccn(Cc4cscn4)c23)no1 [Compound 154]	0.017	>25	0.08
Cc1cc(CNc2nc(N)nc3ccn(Cc4cn5ccccc5n4)c23)no1 [Compound 157]	0.003	>25	0.03
Cc1cc(CNc2nc(N)nc3ccn(Cc4cccc(Cl)n4)c23)no1 [Compound 159]	0.019	>25	0.05
COCCNc1nc(N)nc2ccn(C[C@H]3CCCO3)c12 [Compound 160]	1.81	>25	8.07
CCCCNc1nc(N)nc2ccn(Cc3ccccc3OC(F)F)c12 [Compound 161]	0.009	>25	0.02
COCCNc1nc(N)nc2ccn(Cc3ccccc3OC(F)F)c12 [Compound 162]	0.128	>25	0.32
CCCCNc1nc(N)nc2ccn(Cc3cccc4c3OCCO4)c12 [Compound 163]	0.001	0.75	<0.01
COCCNc1nc(N)nc2ccn(Cc3cccc4c3OCCO4)c12 [Compound 164]	0.025	15.93	0.04
COc1ccnc(Cn2ccc3nc(N)nc(NCc4cc(C)on4)c32)c1 [Compound 167]	0.008	>25	0.09
COc1ccnc(Cn2ccc3nc(N)nc(NCc4cc(C)on4)c32)c1OC [Compound 168]	0.011	>25	0.09
COc1c(C)cnc(Cn2ccc3nc(N)nc(NCc4cc(C)on4)c32)c1C [Compound 169]	0.011	>25	0.04
Cc1cc(CNc2nc(N)nc3ccn(Cc4cccc(C(N)=O)n4)c23)no1 [Compound 172]	0.017	>25	1.40
